According to patent publication US20260137698A1, “CYCLIN-DEPENDENT KINASE 7 INHIBITORS” (JOINT STOCK COMPANY «BIOCAD», priority 2022, published 2026):
Where two headings read alike, the source gives them in different places.

Assays:
CDK7/Cyclin H/MNAT1 = CDK7/Cyclin H/MNAT1 (Homo sapiens, UniProt P50613); test: Inhibition of CDK7/Cyclin H/MNAT1 kinase activity (ADP-Glo); format: biochemical
Method in brief: (§1)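 ADP-Glo luminescence quantified ATP consumption after a 40-60 minute, 25° C. reaction with ATP plus CDKtide, Histone H1 or PDKtide, following a 10-minute compound–kinase preincubation in DTT-supplemented kinase buffer A. Compounds spanned 11 concentrations from 50 μM in 4-fold dilutions; IC50 fitted to a four-parameter model.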

CDK2/Cyclin A = CDK2/Cyclin A (Homo sapiens, UniProt P24941); test: Inhibition of CDK2/Cyclin A kinase activity (ADP-Glo); format: biochemical
Method in brief: as §1

CDK9/Cyclin K = CDK9/Cyclin K (Homo sapiens, UniProt P50750); test: Inhibition of CDK9/Cyclin K kinase activity (ADP-Glo); format: biochemical
Chain of CDK9/Cyclin K (P50750 whole entry): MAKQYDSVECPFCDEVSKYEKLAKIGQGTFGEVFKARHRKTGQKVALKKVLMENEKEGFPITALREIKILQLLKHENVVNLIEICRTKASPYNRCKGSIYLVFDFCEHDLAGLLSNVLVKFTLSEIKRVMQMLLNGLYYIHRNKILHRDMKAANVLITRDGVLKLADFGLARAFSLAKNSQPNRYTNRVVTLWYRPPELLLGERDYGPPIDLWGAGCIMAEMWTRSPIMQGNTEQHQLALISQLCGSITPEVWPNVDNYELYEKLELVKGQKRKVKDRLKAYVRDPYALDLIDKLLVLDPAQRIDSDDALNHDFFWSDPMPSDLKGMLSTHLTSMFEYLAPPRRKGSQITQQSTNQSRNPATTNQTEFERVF
Chain of CDK9/Cyclin K (O75909 whole entry partner): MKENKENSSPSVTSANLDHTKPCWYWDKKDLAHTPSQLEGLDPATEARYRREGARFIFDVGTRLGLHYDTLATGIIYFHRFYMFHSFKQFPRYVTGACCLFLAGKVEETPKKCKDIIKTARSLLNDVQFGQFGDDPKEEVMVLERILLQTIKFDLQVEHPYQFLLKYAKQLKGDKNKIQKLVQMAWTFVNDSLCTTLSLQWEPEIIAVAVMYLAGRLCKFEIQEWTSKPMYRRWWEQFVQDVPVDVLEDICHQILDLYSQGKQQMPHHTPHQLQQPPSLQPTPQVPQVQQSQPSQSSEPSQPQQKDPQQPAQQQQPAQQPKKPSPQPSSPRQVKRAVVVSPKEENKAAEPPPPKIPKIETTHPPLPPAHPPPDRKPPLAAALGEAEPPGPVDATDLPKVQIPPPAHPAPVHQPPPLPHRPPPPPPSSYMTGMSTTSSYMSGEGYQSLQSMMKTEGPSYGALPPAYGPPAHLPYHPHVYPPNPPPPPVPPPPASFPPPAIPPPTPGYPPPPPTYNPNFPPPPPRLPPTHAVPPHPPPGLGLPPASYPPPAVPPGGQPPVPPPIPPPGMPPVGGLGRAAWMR
Method in brief: as §1

[1] = tested on: MDA-MB-468 (triple negative breast cancer); test: Antiproliferative assay on MDA-MB-468 cells (AlamarBlue, 96 h); format: cell-based; settings: Homo sapiens, mean value from several measurements
[2] = tested on: NCl-H82 (small cell lung cancer); test: Antiproliferative assay on NCl-H82 cells (AlamarBlue, 120 h); format: cell-based; settings: mean value from several measurements
[3] = General cytotoxicity on primary differentiated HepaRG cells (72 h); format: cell-based; settings: human, general toxicity, mean value from several measurements
Method in brief: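 Test compounds spanning 200 μM to 0.2 nM were incubated for 72 hours with primary differentiated HepaRG cells. Cells had been kept one week in supplemented hepatic medium and seeded the night before at 25×10^3 per well, and viability was then measured.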

[4] = mean of multiple measurement series, ATP 10 μM, read-out: CDK7/Cyclin H/MNAT1 IC50
[5] = mean value from several measurements, read-out: IC50 CDK7/Cyclin H/MNAT
[6] = mean of multiple measurement series, ATP 50 μM, read-out: CDK2/Cyclin A IC50
[7] = mean value from several measurements, read-out: IC50 CDK2/Cyclin A
[8] = mean of multiple measurement series, ATP 50 μM, read-out: CDK9/Cyclin K IC50
[9] = mean value from several measurements, read-out: IC50 CDK9/Cyclin K

Chain of CDK7/Cyclin H/MNAT1 (P50613 whole entry): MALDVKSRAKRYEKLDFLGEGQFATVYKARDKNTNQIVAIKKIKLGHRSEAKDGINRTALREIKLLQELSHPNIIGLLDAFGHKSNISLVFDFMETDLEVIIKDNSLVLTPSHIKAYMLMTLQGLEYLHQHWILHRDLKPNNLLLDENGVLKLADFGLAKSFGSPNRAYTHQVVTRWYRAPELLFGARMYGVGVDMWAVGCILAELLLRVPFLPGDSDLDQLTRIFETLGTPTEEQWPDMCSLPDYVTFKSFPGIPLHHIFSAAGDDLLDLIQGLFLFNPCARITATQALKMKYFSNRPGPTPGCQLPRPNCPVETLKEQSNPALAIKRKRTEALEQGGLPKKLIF
Chain of CDK7/Cyclin H/MNAT1 (P51946 whole entry partner): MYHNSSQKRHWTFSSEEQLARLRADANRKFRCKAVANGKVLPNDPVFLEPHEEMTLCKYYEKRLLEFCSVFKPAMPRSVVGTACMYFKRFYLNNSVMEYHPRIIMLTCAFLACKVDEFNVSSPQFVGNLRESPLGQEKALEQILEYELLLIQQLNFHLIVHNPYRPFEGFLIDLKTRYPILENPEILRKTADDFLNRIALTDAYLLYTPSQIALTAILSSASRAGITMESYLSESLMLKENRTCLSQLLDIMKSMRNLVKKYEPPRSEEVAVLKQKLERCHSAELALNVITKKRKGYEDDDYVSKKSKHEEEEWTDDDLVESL
Chain of CDK7/Cyclin H/MNAT1 (P51948 whole entry partner): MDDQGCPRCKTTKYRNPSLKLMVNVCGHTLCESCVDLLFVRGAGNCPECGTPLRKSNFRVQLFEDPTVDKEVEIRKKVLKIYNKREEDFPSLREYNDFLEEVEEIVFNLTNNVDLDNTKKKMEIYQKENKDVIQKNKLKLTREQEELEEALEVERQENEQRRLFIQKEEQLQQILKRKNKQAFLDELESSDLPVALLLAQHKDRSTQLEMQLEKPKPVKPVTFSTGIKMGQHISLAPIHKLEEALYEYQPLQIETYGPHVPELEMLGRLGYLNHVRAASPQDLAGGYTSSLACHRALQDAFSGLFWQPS

| Compound | IC50 (CDK7/Cyclin H/MNAT1; [4]) | IC50 (CDK7/Cyclin H/MNAT1; [5]) | IC50 (CDK2/Cyclin A; [6]) | IC50 (CDK2/Cyclin A; [7]) | IC50 (CDK9/Cyclin K; [8]) | IC50 (CDK9/Cyclin K; [9]) | IC50 [1] | IC50 [2] | CC50 at 72 h [3] |
| --- | --- | --- | --- | --- | --- | --- | --- | --- | --- |
| CN1CCCc2c(-c3nc(N[C@H]4CCCNC4)ncc3C(F)(F)F)c[nH]c2C1=O [CDK7_953, 7-methyl-3-(2-{[(3S)-piperidin-3-yl]amino}-5-(trifluoromethyl)py-rimidin-4-yl)-1H,4H,5H,6H,7H, 8H-pyrrolo[2,3-c]azepin-8-one] | < 5 nM | < 5 nM | 5830 nM | > 200 nM | 60 nM | 50 to 200 nM | < 10 nM | < 10 nM | 500 to 2000 nM |
| Cn1cc(N2CCCc3c(-c4nc(N[C@H]5CCCNC5)ncc4C(F)(F)F)c[nH]c3C2=O)cn1 [CDK7_955, 7-(1-methyl-1H-pyrazol-4-yl)-3-(2-{[(3S)-piperidin-3-yl]amino}-5-(trifluoromethyl)py-rimidin-4-yl)-1H,4H,5H,6H,7H, 8H-pyrrolo[2,3-c]azepin-8-one] |  | 5 to 50 nM |  | > 200 nM |  | > 200 nM | 100 to 1000 nM | > 1000 nM | > 2000 nM |
| Cn1cc(-n2ccc3c(-c4nc(N[C@H]5CCCNC5)ncc4C(F)(F)F)c[nH]c3c2=O)cn1 [CDK7_959, 6-(1-methyl-1H-pyrazol-4-yl)-3-(2-{[(3S)-piperidin-3-yl]amino}-5-(trifluoromethyl)py-rimidin-4-yl)-1H,6H,7H-pyrrolo[2,3-c]pyridin-7-one] | < 5 nM | < 5 nM | 5260 nM | > 200 nM | 106 nM | 50 to 200 nM | < 10 nM | < 10 nM | > 2000 nM |
| O=c1c2[nH]cc(-c3nc(N[C@H]4CCCNC4)ncc3C(F)(F)F)c2ccn1Cc1ccccc1 [CDK7_961, 6-benzyl-3-(2-{[(3S)-piperidin-3-yl]amino}-5-(trifluoromethyl)py-rimidin-4-yl)-1H,6H,7H-pyrrolo[2,3-c]pyridin-7-one] | < 5 nM | < 5 nM | 3700 nM | > 200 nM | 69 nM | 50 to 200 nM | < 10 nM | < 10 nM | 100 to 500 nM |
| Cn1cc(N2CCCc3c(-c4nc(N[C@H]5CCC(C)(C)NC5)ncc4C(F)(F)F)c[nH]c3C2=O)cn1 [CDK7_1122, 3-(2-{[(3S)-6,6-dimethylpiperidin-3-yl]amino}-5-(trifluoromethyl)py-rimidin-4-yl)-7-(1-methyl-1H-pyrazol-4-yl)-1H,4H,5H,6H,7H, 8H-pyrrolo[2,3-c]azepin-8-one] |  | 5 to 50 nM |  |  |  | > 200 nM | 100 to 1000 nM |  | > 2000 nM |
| Cn1cc(-n2ccc3c(-c4nc(N[C@H]5CCC(C)(C)NC5)ncc4C(F)(F)F)c[nH]c3c2=O)cn1 [CDK7_1123, 3-(2-{[(3S)-6,6-dimethylpiperidin-3-yl]amino}-5-(trifluoromethyl)py-rimidin-4-yl)-6-(1-methyl-1H-pyrazol-4-yl)-1H,6H,7H-pyrrolo[2,3-c]pyridin-7-one] | < 5 nM | < 5 nM | 35200 nM | > 200 nM | 265 nM | > 200 nM | < 10 nM | 10 to 100 nM | > 2000 nM |
| O=C1c2[nH]cc(-c3nc(NC4CCCNC4)ncc3C(F)(F)F)c2CCCN1c1nccs1 (stereo not shown) [CDK7_1172] |  | < 5 nM |  | > 200 nM |  | > 200 nM | 10 to 100 nM | 10 to 100 nM | > 2000 nM |
| O=C1c2[nH]cc(-c3nc(N[C@H]4CCCNC4)ncc3C(F)(F)F)c2CCCN1c1ccccn1 [CDK7_1176, 3-(2-{[(3S)-piperidin-3-yl]amino}-5-(trifluoromethyl)py-rimidin-4-yl)-7-(pyridin-2-yl)-1H,4H,5H,6H,7H, 8H-pyrrolo[2,3-c]azepin-8-one] |  | 5 to 50 nM |  |  |  |  | 100 to 1000 nM |  | > 2000 nM |
| CN1CCCc2c(-c3nc(N[C@H]4CCC(C)(C)NC4)ncc3C(F)(F)F)c[nH]c2C1=O [CDK7_1187, 3-(2-{[(3S)-6,6-dimethylpiperidin-3-yl]amino}-5-(trifluoromethyl)py-rimidin-4-yl)-7-methyl-1H,4H,5H,6H,7H, 8H-pyrrolo[2,3-c]azepin-8-one] | < 5 nM | < 5 nM | 15700 nM | > 200 nM | 182 nM | > 200 nM | < 10 nM | < 10 nM | > 2000 nM |
| O=C1c2[nH]cc(-c3nc(NC4CCCNC4)ncc3C(F)(F)F)c2CCCN1C1CC1 (stereo not shown) [CDK7_1188] |  | < 5 nM |  | > 200 nM |  | > 200 nM | < 10 nM | < 10 nM | > 2000 nM |
| CC1(C)CC[C@H](Nc2ncc(C(F)(F)F)c(-c3c[nH]c4c3CCCN(C3CC3)C4=O)n2)CN1 [CDK7_1225, 7-cyclopropyl-3-(2-{[(3S)-6,6-dimethylpiperidin-3-yl]amino}-5-(trifluoromethyl)py-rimidin-4-yl)-1H,4H,5H,6H,7H, 8H-pyrrolo[2,3-c]azepin-8-one] | < 5 nM | < 5 nM | 13900 nM | > 200 nM | 441 nM | > 200 nM | 10 to 100 nM | 10 to 100 nM | > 2000 nM |
| CC1(C)CC[C@H](Nc2ncc(C(F)(F)F)c(-c3c[nH]c4c3CCCN(CC3CC3)C4=O)n2)CN1 [CDK7_1227, 7-(cyclopropylmeth-yl)-3-(2-{[(3S)-6,6-dimethylpiperidin-3-yl]amino}-5-(trifluoromethyl)py-rimidin-4-yl)-1H,4H,5H,6H,7H, 8H-pyrrolo[2,3-c]azepin-8-one] |  | < 5 nM |  | > 200 nM |  | > 200 nM | 10 to 100 nM | 10 to 100 nM | > 2000 nM |
| CC(C)N1CCCc2c(-c3nc(N[C@H]4CCC(C)(C)NC4)ncc3C(F)(F)F)c[nH]c2C1=O [CDK7_1229, 3-(2-{[(3S)-6,6-dimethylpiperidin-3-yl]amino}-5-(trifluoromethyl)py-rimidin-4-yl)-7-(propan-2-yl)-1H,4H,5H,6H,7H, 8H-pyrrolo[2,3-c]azepin-8-one] | < 5 nM | < 5 nM | 22900 nM | > 200 nM | 485 nM | > 200 nM | 10 to 100 nM | 10 to 100 nM | > 2000 nM |
| CC1CCc2c(-c3nc(N[C@H]4CCCNC4)ncc3C(F)(F)F)c[nH]c2C(=O)N1C (stereo partly drawn) [CDK7_1254, 6,7-dimethyl-3-(2-{[(3S)-piperidin-3-yl]amino}-5-(trifluoromethyl)py-rimidin-4-yl)-1H,4H,5H,6H,7H, 8H-pyrrolo[2,3-c]azepin-8-one] |  | < 5 nM |  | > 200 nM |  | > 200 nM | 10 to 100 nM | 10 to 100 nM | > 2000 nM |
| CCN1CCCc2c(-c3nc(N[C@H]4CCC(C)(C)NC4)ncc3C(F)(F)F)c[nH]c2C1=O [CDK7_1259, 3-(2-{[(3S)-6,6-dimethylpiperidin-3-yl]amino}-5-(trifluoromethyl)py-rimidin-4-yl)-7-ethyl-1H,4H,5H,6H,7H, 8H-pyrrolo[2,3-c]azepin-8-one] |  | < 5 nM |  | > 200 nM |  | > 200 nM | 10 to 100 nM | 10 to 100 nM | > 2000 nM |
| O=C1c2[nH]cc(-c3nc(N[C@H]4CCC5(CC5)NC4)ncc3C(F)(F)F)c2CCCN1C1CC1 [CDK7_1276, 3-(2-{[(6S)-4-azaspiro[2.5]octan-6-yl]amino}-5-(trifluoromethyl)py-rimidin-4-yl)-7-cyclopropyl-1H,4H,5H,6H,7H, 8H-pyrrolo[2,3-c]azepin-8-one] | < 5 nM | < 5 nM | 6220 nM | > 200 nM | 296 nM | > 200 nM | < 10 nM | < 10 nM | > 2000 nM |
| CC(C)N1CCCc2c(-c3nc(N[C@H]4CCC5(CC5)NC4)ncc3C(F)(F)F)c[nH]c2C1=O [CDK7_1277, 3-(2-{[(6S)-4-azaspiro[2.5]octan-6-yl]amino}-5-(trifluoromethyl)py-rimidin-4-yl)-7-(propan-2-yl)-1H,4H,5H,6H,7H, 8H-pyrrolo[2,3-c]azepin-8-one] | < 5 nM | < 5 nM | 14300 nM | > 200 nM | 442 nM | > 200 nM | < 10 nM | < 10 nM | > 2000 nM |
